Laboratory results published in patent US12378201B2, “Histone demethylase inhibitors for treating cancers” (The Board of Regents of the University of Texas System, priority 2019, dated 2025).
pIC50: −log10 of the molar value.

Assays:
[1] = system: prostate and kidney cancer cells; assay: Cell growth inhibition / anti-proliferation (MTT); format: cell-based, human
Description: Results of MTT assays for compounds disclosed herein can be found in FIGS. 1, 2A-2C, 3, 4, 5, 6, 7, 8, 9, 10A-10C, and 11A-11C.

[2] = system: LNCaP and 22rv1 cell lines; assay: SAR statements on LNCaP and 22rv1 cell lines; format: cell-based; settings: LNCaP 1 μM, 22rv1 0.5 μM
Procedure: All compounds were evaluated for their effects on LNCaP and 22rv1 cell lines at 1 and 0.5 μM concentrations, respectively. […] For this purpose different analogues of B-3 with chain length varying from 0 to 4 carbon were synthesized (Table 1). […] In view of the availability of a variety of commercially available benzyl amines over phenyl propyl amines and method to functionalize analogues with 1C chain compound 14c was selected for further modification.

[3] = system: castration resistant prostate cancer cell line 22RV1; assay: 22RV1 xenograft tumor growth in NOD/SCID mice; format: in vivo; settings: in words
Procedure: All animal work was approved by the Institutional Animal Care and Use Committee. NOD/SCID mice (6-8 weeks old) were subcutaneously injected in the flank region with castration resistant prostate cancer cell line 22RV1 (1×10^6 cells/site) mixed with 50% Matrigel (BD Biosciences). When tumor volumes reached 50-100 mm^3 in size, animals were randomly divided into 5 groups: control (DMSO); B3 (50 or 10 mg/kg in DMSO); SS-79N (20 or 10 mg/kg in DMSO). Each group included six mice. Tumor volume (cubic millimeters) was measured by caliper twice a week and calculated by using the ellipsoid formula (π/6×length×width×depth, see FIGS. 12A-12B).

[4] = system: LnCap cells; assay: Effect on LnCap cell viability; settings: 1 μM
Procedure: The initial interest was to see the importance of length of side chain on B-3. […] Relative cell growth can be assessed using the MTT (3-(4,5-dimethylthiazol-2-yl)-2,5-diphenyltetrazolium bromide) assay, a colorimetric assay for assessing cell metabolic activity. Cells (1000 to 2000 cells/well) in 150 μL culture medium were seeded in wells of a 96-well plate one day before various concentrations of drugs were added. After continuing culture in the presence of the drugs for the indicated time (3-4 days), 20 μL of 5 mg/mL MTT solution (Sigma-Aldrich) was added into each well. After incubation at 37° C. for 30 min, the culture medium was removed and 100 μL of DMSO was added to dissolve MTT crystals. Plates were shaken for 15 min at room temperature and absorbance at OD590 was read by plate reader.

O=C(NCc1ccc(C(=O)NC2CCC(C(F)(F)F)CC2)cc1)c1cccc(-c2cc(O)c3ncccc3c2)c1 (stereo not drawn) [Compound 17l]
increase in potency compared to other 8-hydroxyquinoline-containing compounds, such as B3 ([1]; IC50 versus B3): more than 20 fold
efficacy compared with the known GSK KDM6B inhibitor ([1]; in words): much better efficacy than the known GlaxoSmithKline (GSK) KDM6B inhibitor
pIC50 ([1]; prostate and kidney cancer cells): > 6.70
activity on cell lines, in words (SAR) [2]: improved further
in vivo efficacy [3]: favorable in vivo efficacy
% Cell Viability of LnCap cells at 1 μM [4]: 24.2%
